# Where two headings read alike, the source gives them in different places.
# Key:
# Vibrio fischeri = test: microbe, parasite or virus in culture; format: cell-based; conditions: Aliivibrio fischeri; for EC50: 0.5 h, read-out: EC50 V. fischeri (with confidence interval 2.5–97.5%)
# Description: (§1) Stock solutions and dilutions were prepared in 2% NaCl in 0.02 M phosphate buffer, pH 7. The freeze-dried bacteria were rehydrated prior to testing in a reactivation solution. Culture suspensions and diluted samples were pre-incubated at 15 °C for 15 min. After the initial luminescence was measured, 0.5 mL of the culture suspension was mixed with the same volume of a diluted sample. The final bioluminescence was measured after 30 min. Incubation was kept at 15 °C (LUMIStox 300 meter, Dr. Lange GmbH, Berlin, Germany). The relative toxicity of the samples was expressed as a percentage of luminescence inhibition compared to the controls.
# as §1, with “m,” for “meter,”
# Daphnia magna = test: D. magna acute immobilization test; format: in vivo; conditions: Daphnia magna; for EC50: immobilization, 48 h, read-out: EC50 D. magna (with confidence interval 2.5–97.5%); for mortality at 70 µg/mL: read-out: Immobilization
# Description: (§2) All tests were carried out in accordance with the OECD or ISO guidelines. In general the experimental part was divided into three main steps: (i) determination of the toxicity of the native forms of pharmaceuticals (their racemic mixtures), (ii) toxicity evaluation of the selected TPs of these pharmaceuticals, and (iii) preliminary toxicity assessment of the enantiomers of selected pharmaceuticals. For each assay, range-finding tests were conducted, in order to determine the range of concentrations for the definitive tests. The main tests were repeated three times in at least two parallel replicates, with a minimum of five concentrations for native forms of the selected pharmaceuticals (including their enantiomers). The exact number of replicates and concentrations tested was included in the description of each test. […] However, TPs were tested in a different manner; first, the tests were carried out at the limit concentration of 100 mg L^−1. […] Such approach was applied in order to observe the relative toxicity of the selected TP and its native form.
# (§3) Dose-response curves were fitted using a linear logistic or logistic model (the model giving the best fit was chosen) (https://cran.r-project.org/web/packages/drfit/drfit.pdf). The mathematic formulas applied for this purpose are presented and described in the Supplementary Material. The EC50 values were given since log EC50 is a model parameter in the logistic as well as in linear logistic model.
# Five pre-fed test organisms were incubated with the studied compounds diluted in 10 mL of test media in glass test vessels at 20 °C (± 1 °C) in darkness for 48 h. Each test consisted of a control and five different concentrations of the studied compound in four parallel replicates. In order to achieve a full dose-response relationship, the concentration series covered the range of 0–100% immobilization. The number of immobilized or dead organisms was checked after 24 and 48 h. The negative effect of exposure to the tested compounds was expressed by the number of immobilized organisms compared to the controls.
# Lemna minor = test: L. minor growth inhibition test; conditions: Lemna minor; for EC50: 168 h, read-out: EC50 L. minor (with confidence interval 2.5–97.5%), growth rate inhibition by frond area, 7 days
# Description: as §2, §3
# One week before the assay, the inoculum cultures were prepared; eight healthy plants were placed into a new portion of the medium. Two days before the test, the plants were transferred to a fresh medium, in order to supplement nutrients and to eliminate plant metabolites. The experiments were performed in six-well plates under the conditions described above. The pH value of the Steinberg medium and all solutions was 5.5 (± 0.5). Every test included six different concentrations of compound and six controls in three replicates. The test started with one plant consisting of three fronds and the measured endpoint was the inhibition of growth rate determined by comparing the frond area (mm^2) for the treated plants and untreated controls.
# Arthrobacter globiformis = test: A. globiformis dehydrogenase inhibition test (version without soil); conditions: for EC50: read-out: EC50 A. globiformis
# Description: as §2
# The test strain was obtained from the German Collection of Microorganisms (DSMZ). A version of the test without soil was performed. Bacteria was grown in a sterile medium containing 10 g L^−1 peptone from casein, 5 g L^−1 yeast extract, 5 g L^−1 glucose, and 5 g L^−1 NaCl. For the test, the medium was diluted in a ratio of 1:3 in water. The inoculum was the bacteria in a log-growth phase. Cell density was adjusted to 1 × 10^8 cells mL^−1, which corresponds to an optical density (OD600nm) of 0.4. The test was performed in 24-well microplates. Each well contained 1 mL of solution of the tested compound in water and 1 mL of bacterial inoculum. Next, the plates were incubated for 2 h at 30 °C on a horizontal shaker with a speed of 100 rpm. To each well, a portion of 0.6 mL of the redox active dye resazurine (45 mg L^−1) dissolved in buffer was added. The microplates were further incubated for 1 h (30 °C, 100 rpm). To stop the reduction process, the plates were centrifuged at 3600g for 10 min. Aliquots (300 μl) of supernatant from each well were immediately transferred to the wells of a 96-well microplate in triplicates. Finally, the dehydrogenase activity was determined by measuring the formation of resorufin from resazurine using a fluorimeter ([…]). Dehydrogenase inhibition was calculated using Eq. 1.
# where FBTS is the measured fluorescence of the blank (medium) with the tested substance, FTS is the measured fluorescence of the sample, FBNC is the measured fluorescence of the blank, and FNC is the measured fluorescence of the negative control (with bacteria).
# L. minor = conditions: cited from earlier work
# Raphidocelis subcapitata = test: R. subcapitata reproduction (growth) inhibition test; format: cell-based; conditions: Raphidocelis subcapitata, 72 h, growth inhibition by cell counts, 72 h; read-out: EC50 R. subcapitata (with confidence interval 2.5–97.5%)
# Description: as §2, §3
# Test organisms were provided from Algal Culture Collection (Universität Göttingen, Germany). […] The light-dark cycle was different from the OECD guidelines, and it was introduced to imitate natural growth conditions. In order to ensure that the algae are in the exponential growth phase when used to inoculate the test solutions, the stock culture was diluted three times a week. The test was carried out in 25 mL suspension cell culture flasks (Nunc) (working volume 10 mL). All operations were performed under sterile conditions. The initial cell concentration was 5 × 10^4 cells mL^−1. Eight different concentrations of every compound in three replicates and a minimum of six controls were used in each test. […] The test flasks were incubated on a shaker with a speed of approx. 75 rpm at the temperature and light conditions described above. Growth inhibition was calculated using the cell counts of the treated samples in relation to the untreated controls after 72 h of exposure. The cells were counted with the use of CASY TT Cell counter & analyzer.
# duckweed = conditions: ref Cleuvers 2003; cited from earlier work
# algae = conditions: cited from earlier work
# V. fischeri = conditions: cited from earlier work
# [1] = ref US Food and Drug Administration 1996
smiles,measurement,setting,value
"O=C(O)Cc1ccccc1Nc1c(Cl)cccc1Cl [DIC, Diclofenac]",EC50,Vibrio fischeri,11.6 µg/mL
same,inhibition at 10 µg/mL,Vibrio fischeri; read-out: Luminescence inhibition,45%
same,mortality at 60 µg/mL,Daphnia magna; concentration 60 mg L^−1,50%
same,EC50,Daphnia magna,59.1 µg/mL
same,EC50,Lemna minor,16.5 µg/mL
same,inhibition at 15 µg/mL,Lemna minor; read-out: Growth inhibition of L. minor,33%
same,EC50,Arthrobacter globiformis,> 100 µg/mL
same,inhibition at 100 µg/mL,Arthrobacter globiformis; read-out: inhibition of bacterial growth (A. globiformis),30%
same,classification on the basis of EC50 values (EC 93/67/EEC),aquatic organisms,harmful
same,EC50 L. minor,L. minor; ref Quinn et al. (2011),47.6 µg/mL
"COc1ccc2cc([C@H](C)C(=O)O)ccc2c1 [NAP, Naproxen]",EC50,"Vibrio fischeri; luminescence inhibition, 30 min, 15 °C",25.2 µg/mL
same,inhibition at 25 µg/mL,"Vibrio fischeri; concentration 25 mg L^−1, read-out: Luminescence inhibition",51%
same,mortality at 70 µg/mL,Daphnia magna; concentration 70 mg L^−1,32%
same,EC50,Daphnia magna,74.4 µg/mL
same,EC50,Lemna minor,20.7 µg/mL
same,EC50,Raphidocelis subcapitata,27.1 µg/mL
same,EC50,Arthrobacter globiformis,> 100 µg/mL
same,classification on the basis of EC50 values (EC 93/67/EEC),aquatic organisms; for the organisms named in the sentence,harmful
same,EC50 duckweed,duckweed,24 µg/mL
same,"EC50, 72h algae","algae; 72 h, ref Minguez et al. 2016",44.40 µg/mL
same,"EC50, 96h algae","algae; 96 h, ref Isidori et al. 2005b",31.82 µg/mL
"COc1cccc(C2(O)CCCCC2CN(C)C)c1 (stereo not shown) [TRA, Tramadol]",mortality at 70 µg/mL,Daphnia magna,44%
same,toxic effect towards V. fischeri,"V. fischeri; at the concentration of 100 mg L^−1, ref Romanucci et al. (2019)",did not observed any toxic effect
same,toxicity to V. fischeri,V. fischeri; [1],not toxic
same,toxicity to L. minor,L. minor; [1],not toxic

# From publication PMC7332481, “Ecotoxicity screening evaluation of selected pharmaceuticals and their transformation products towards various organisms” (Environmental Science and Pollution Research International, 2020)
